Values quoted from earlier work, collected in patent US6048878A, “Substituted piperidine derivatives as selective agonists of 5-HT receptors” (Merck Sharp & Dohme Ltd., priority 1995, dated 2000).

Tests used:
[1] = therapeutic doses
[2] = tested on: human 5-HT1D.sbsb.α and 5-HT1D.sbsb.β receptor subtypes; conditions: cf. WO-A-91/17174, Table 1

discrimination between the human 5-HT1D.sbsb.α and 5-HT1D.sbsb.β receptor subtypes [2]: barely discriminates
SMILES: CNS(=O)(=O)Cc1ccc2[nH]cc(CCN(C)C)c2c1 [sumatriptan]
adverse cardiovascular events in humans [1]: certain adverse cardiovascular events
